This experiment relates to wild-type red mold strain GZ3639. Description: Inhibition of spore germination / reactive oxygen species generation through NOX enzyme inhibition in red mold. To be noted: 24 h, read-out: IC50 (µM), compound concentration at which the spore germination inhibition rate was 50%. The format is cell-based. How it is done:
When NADPH oxidase (NOX), which is involved in the generation of reactive oxygen species in red mold, is inhibited, normal mycelial growth is inhibited, abnormal form of monocyclic conidia is formed, and germination is inhibited. The abnormal phenotype caused by the reduction of reactive oxygen species in red mold can be easily observed under an optical microscope. Through this, the ability to inhibit generation of reactive oxygen species through NOX inhibition was evaluated.
Specifically, for the evaluation of compound activity, 0.1 mM of the compound was added to a minimum medium (MM20) spore suspension diluted to ⅕. Spores ([…]) of wild-type red mold strain GZ3639 were inoculated into the medium and cultured at 25° C. for 24 h, followed by microscopic observation. Compounds having a germination inhibition rate and microcycle conidiation to be 50% or more of those in normal germination were selected, and their activities were evaluated at concentrations of 50 µM, 25 µM, and 10 µM. At this time, the activity of substances having a germination inhibition rate of 95% at 10 µM was further evaluated at concentrations of 5 µM, 1 µM, 0.5 µM, and 0.1 µM. Based on the result of this evaluation, the compound concentration (inhibitory concentration 50%, IC50) at which the spore germination inhibition rate was 50% was determined.

SMILES strings stand for the structures.

Results on 37 molecules are retold here after patent publication US20230286956A1 (DUKSUNG WOMEN'S UNIVERSITY INDUSTRY-ACADEMIC COOPERATION …, priority 2020, published 2023).

As to `CN1C(=[Se])N(c2ccccc2)C(=O)/C1=C\c1ccc(N(C)C)cc1` [Compound 3, 5-(4-(dimethylamino)benzylidene)-1-methyl-3-phenyl-2-selenoxoimidazolidine-4-on], the IC50 came out at 26 µM.

For `CN1C(=[Se])N(c2ccccc2)C(=O)/C1=C\c1ccc(N2CCCC2)cc1` [Compound 7, 1-methyl-3-phenyl-5-(4-pyrrolidine-1-yl)benzylidene-2-selenoxoimidazolidine-4-on], the IC50 was 16 µM.

Consider `CN1C(=[Se])N(c2ccccc2)C(=O)/C1=C\c1cccc(O)c1` [Compound 8, 5-(3-hydroxybenzylidene)-1-methyl-3-phenyl-2-selenoxoimidazolidine-4-on], for which the IC50 is 41 µM.

Consider `CN1C(=[Se])N(c2ccccc2)C(=O)/C1=C\c1cccnc1` [Compound 9, 1-methyl-3-phenyl-5-(pyridine-3-ylmethylene)-2-selenoxoimidazolidine-4-on], for which the IC50 stood at 37 µM.

In the case of `Cc1ccc(N2C(=O)/C(=C\c3cccc(O)c3O)N(C)C2=[Se])cc1` [Compound 11, 5-(2,3-dihydroxybenzylidene)-1-methyl-3-(4-tolyl)-2-selenoxoimidazolidine-4-on], the IC50 was determined as 46 µM.

On to `Cc1ccc(N2C(=O)/C(=C\c3ccc(Br)cc3)N(C)C2=[Se])cc1` [Compound 16, 5-(4-bromobenzylidene)-1-methyl-2-selenoxo-3-(4-tolyl)imidazolidine-4-on], for which the IC50 amounted to 46 µM.

On to `Cc1ccc(N2C(=O)/C(=C\c3ccc(N4CCCC4)cc3)N(C)C2=[Se])cc1` [Compound 17, 1-methyl-5-(4-pyrrolidine-1-yl)benzylidene-2-selenoxo-3-(4-tolyl)imidazolidine-4-on], for which the IC50 was found to be 11 µM.

With `Cc1ccc(N2C(=O)/C(=C\c3ccc(O)cc3)N(C)C2=[Se])cc1` [Compound 18, 5-(4-hydroxybenzylidene)-1-methyl-2-selenoxo-3-(4-tolyl)imidazolidine-4-on], the IC50 is 13 µM.

For `Cc1ccc(N2C(=O)/C(=C\c3cccnc3)N(C)C2=[Se])cc1` [Compound 19, 1-methyl-5-(pyridine-3-ylmethylene)-2-selenoxo-3-(4-tolyl)imidazolidine-4-on], the IC50 is 41 µM.

Consider `Cc1ccc(N2C(=O)/C(=C\c3ccc(NCCN4CCOCC4)cc3)N(C)C2=[Se])cc1` [Compound 23, 1-methyl-5-(4-((2-morpholinoethyl)amino)benzylidene)-2-selenoxo-3-(4-tolyl)imidazolidine-4-on], for which the IC50 came to 5.2 µM.

On to `CCc1ccc(N2C(=O)/C(=C\c3ccc(O)cc3O)N(C)C2=[Se])cc1` [Compound 24, 5-(2,4-dihydroxybenzylidene)-3-(4-ethylphenyl)-1-methyl-2-selenoxoimidazolidine-4-on], for which the IC50 is 14 µM.

For `CCc1ccc(N2C(=O)/C(=C\c3ccc(N4CCCCC4)cc3)N(C)C2=[Se])cc1` [Compound 28, 3-(4-ethylphenyl)-1-methyl-5-(4-(piperidine-1-yl)benzylidene)-2-selenoxoimidazolidine-4-on], the IC50 came to 11 µM.

In the case of `CCc1ccc(N2C(=O)/C(=C\c3ccc(Br)cc3)N(C)C2=[Se])cc1` [Compound 29, 5-(4-bromobenzylidene)-3-(4-ethylphenyl)-1-methyl-2-selenoxoimidazolidine-4-on], the IC50 amounted to 11 µM.

In the case of `CCc1ccc(N2C(=O)/C(=C\c3cccnc3)N(C)C2=[Se])cc1` [Compound 31, 3-(4-ethylphenyl)-1-methyl-5-(pyridine-3-ylmethylene)-2-selenoxoimidazolidine-4-on], the IC50 turned out to be 30 µM.

In the case of `CN1C(=[Se])N(c2ccc(Cl)cc2)C(=O)/C1=C\c1ccc(O)cc1O` [Compound 35, 3-(4-chlorophenyl)-5-(2,4-dihydroxybenzylidene)-1-methyl-2-selenoxoimidazolidine-4-on], the IC50 came to 31 µM.

Take `CN1C(=[Se])N(c2ccc(Cl)cc2)C(=O)/C1=C\c1cccc(O)c1O` [Compound 36, 3-(4-chlorophenyl)-5-(2,3-dihydroxybenzylidene)-1-methyl-2-selenoxoimidazolidine-4-on]: the IC50 was determined as 46 µM.

Consider `CN1C(=[Se])N(c2ccc(Cl)cc2)C(=O)/C1=C\c1ccc(O)c(O)c1` [Compound 37, 3-(4-chlorophenyl)-5-(3,4-dihydroxybenzylidene)-1-methyl-2-selenoxoimidazolidine-4-on], for which the IC50 turned out to be 20 µM.

With `CN1C(=[Se])N(c2ccc(Cl)cc2)C(=O)/C1=C\c1cc(O)cc(O)c1` [Compound 38, 3-(4-chlorophenyl)-5-(3,5-dihydroxybenzylidene)-1-methyl-2-selenoxoimidazolidine-4-on], the IC50 worked out at 56 µM.

Turning to `CN1C(=[Se])N(c2ccc(Cl)cc2)C(=O)/C1=C\c1cccnc1` [Compound 39, 3-(4-chlorophenyl)-1-methyl-5-(pyridine-3-ylmethylene)-2-selenoxoimidazolidine-4-on], the IC50 is 27 µM.

As to `CN1C(=[Se])N(c2cccc(Cl)c2)C(=O)/C1=C\c1cccc(O)c1O` [Compound 40, 3-(3-chlorophenyl)-5-(2,3-dihydroxybenzylidene)-1-methyl-2-selenoxoimidazolidine-4-on], the IC50 came to 42 µM.

As to `CN1C(=[Se])N(CCc2ccccc2)C(=O)/C1=C\c1ccc(O)cc1O` [Compound 41, 5-(2,4-dihydroxybenzylidene)-1-methyl-3-phenethyl-2-selenoxoimidazolidine-4-on], the IC50 came out at 9.8 µM.

With `CN1C(=[Se])N(CCc2ccccc2)C(=O)/C1=C\c1ccc(N(C)C)cc1` [Compound 43, 5-(4-(dimethylamino)benzylidene)-1-methyl-3-phenethyl-2-selenoxoimidazolidine-4-on], the IC50 was 23 µM.

On to `CN1C(=[Se])N(CCc2ccccc2)C(=O)/C1=C\c1ccc(N2CCOCC2)cc1` [Compound 52, 1-methyl-5-(4-morpholinobenzylidene)-3-phenethyl-2-selenoxoimidazolidine-4-on], for which the IC50 worked out at 3.5 µM.

As to `CN1C(=[Se])N(C2CCCCC2)C(=O)/C1=C\c1ccc(O)cc1O` [Compound 55, 3-cyclohexyl-5-(2,4-dihydroxybenzylidene)-1-methyl-2-selenoxoimidazolidine-4-on], the IC50 was determined as 1 µM.

With `CN1C(=[Se])N(C2CCCCC2)C(=O)/C1=C\c1cccc(O)c1O` [Compound 56, 3-cyclohexyl-5-(2,3-dihydroxybenzylidene)-1-methyl-2-selenoxoimidazolidine-4-on], the IC50 worked out at 18 µM.

For `CN1C(=[Se])N(C2CCCCC2)C(=O)/C1=C\c1ccc(N(C)C)cc1` [Compound 57], the IC50 turned out to be 46 µM.

Consider `CN1C(=[Se])N(C2CCCCC2)C(=O)/C1=C\c1cc(O)cc(O)c1` [Compound 58, 3-cyclohexyl-5-(3,5-dihydroxybenzylidene)-1-methyl-2-selenoxoimidazolidine-4-on], for which the IC50 worked out at 18 µM.

On to `CCCCCCN1C(=O)/C(=C\c2cccc(O)c2O)N(C)C1=[Se]` [Compound 60, 5-(2,3-dihydroxybenzylidene)-3-hexyl-1-methyl-2-selenoxoimidazolidine-4-on], for which the IC50 turned out to be 6 µM.

For the molecule `CCCCCCN1C(=O)/C(=C\c2ccc(N(C)C)cc2)N(C)C1=[Se]` [Compound 61, 5-(4-(dimethylamino)benzylidene)-3-hexyl-1-methyl-2-selenoxoimidazolidine-4-on], the IC50 is 33 µM.

As for `CCCCCCN1C(=O)/C(=C\c2cc(O)cc(O)c2)N(C)C1=[Se]` [Compound 62, 5-(3,5-dihydroxybenzylidene)-3-hexyl-1-methyl-2-selenoxoimidazolidine-4-on], the IC50 is 5 µM.

Turning to `CCCCCCN1C(=O)/C(=C\c2ccc(N3CCOCC3)cc2)N(C)C1=[Se]` [Compound 63, 3-hexyl-1-methyl-5-(4-morpholinobenzylidene)-2-selenoxoimidazolidine-4-on], the IC50 was 0.5 µM.

For the molecule `CCCCCCN1C(=O)/C(=C\c2ccc(NCCOCCF)cc2)N(C)C1=[Se]` [Compound 67, 5-(4-((2-(2-fluoroethoxy)ethyl)amino)benzylidene)-3-hexyl-1-methyl-2-selenoxoimidazolidine-4-on], the IC50 came to 0.45 µM.

Take `CN1C(=[Se])N(C2CCCC2)C(=O)/C1=C\c1ccc(O)cc1O` [Compound 68, 3-cyclopentyl-5-(2,4-dihydroxybenzylidene)-1-methyl-2-selenoxoimidazolidine-4-on]: the IC50 stood at 3 µM.

Consider `CN1C(=[Se])N(C2CCCC2)C(=O)/C1=C\c1cccc(O)c1O` [Compound 69, 3-cyclopentyl-5-(2,3-dihydroxybenzylidene)-1-methyl-2-selenoxoimidazolidine-4-on], for which the IC50 is 14 µM.

Regarding `CN1C(=[Se])N(C2CCCC2)C(=O)/C1=C\c1ccc(N(C)C)cc1` [Compound 70, 3-cyclopentyl-5-(4-(dimethylamino)benzylidene)-1-methyl-2-selenoxoimidazolidine-4-on], the IC50 turned out to be 26 µM.

As for `CN1C(=[Se])N(C2CCCC2)C(=O)/C1=C\c1ccc(O)c(O)c1` [Compound 71, 3-cyclopentyl-5-(3,4-dihydroxybenzylidene)-1-methyl-2-selenoxoimidazolidine-4-on], the IC50 came to 26 µM.

On to `CN1C(=[Se])N(c2ccc(F)cc2)C(=O)/C1=C\c1ccc(N(C)C)cc1` [Compound 75, 5-(4-(dimethylamino)benzylidene)-3-(4-fluorophenyl)-1-methyl-2-selenoxoimidazolidine-4-on], for which the IC50 stood at 23 µM.
